Earlier results on 131 molecules are cited in the CATMoS acute toxicity set (Mansouri et al. 2021).

Where “and” joins values, the source holds several entries; their conditions need not be identical. Equal values may be shown once.

The series is described as follows: rat acute oral toxicity. As to conditions: in vivo.
Turning to `CCCC(CCC)C(C)NC(=O)CC` (stereo unspecified), the LD50 was 700 mg/kg.
Take `S=c1[nH]c2ccc(Cl)cc2[nH]1`: the LD50 was 150 mg/kg.
On to `CC(C)CCCC(C)N` (stereo unspecified), for which the LD50 is 538 mg/kg.
`C=CCn1c(=O)[nH]c(=O)n(CC=C)c1=O`: the LD50 is 930 mg/kg.
As for `CC(=O)N1CCOCC1`, the LD50 is 6130 mg/kg.
As to `CC(=O)SCC[N+](C)(C)C`, the LD50 was 100 mg/kg.
For `Cc1ccc(C)c([N+](=O)[O-])c1`, the LD50 is 2440 mg/kg.
With `C=CC(=C)CCCC(C)(C)OC(C)=O`, the LD50 was 6300 mg/kg.
`CCC(CC)COC(=O)CCCCC(=O)OCC(CC)CC`: the LD50 was 5620 mg/kg.
As for `O=C(O)Cc1ccc2c(c1)C(=O)c1ccccc1CN2`, the LD50 is 810 mg/kg.
With `CS(=O)(=O)c1ccc(CN(CCO)C(=O)C(Cl)Cl)cc1`, the LD50 was 12500 mg/kg.
For the molecule `C=COCC(C)CCCC(C)CC(C)C` (stereo unspecified), the LD50 is 1220 mg/kg.
On to `Nc1ccccc1C(=O)O`, for which the LD50 is 5410 mg/kg.
Take `CCOP(=O)(OCC)Sc1ccc([N+](=O)[O-])cc1`: the LD50 is 4.41 mg/kg.
On to `CCN1CCC(=C2c3ccccc3CCc3ccccc32)C1C` (stereo unspecified), for which the median lethal dose (LD50) was 600 mg/kg.
With `CC(=O)OC(C)C[N+](C)(C)C` (stereo unspecified), the LD50 is 750 mg/kg.
For `CCCCCCCCCCCCCCOC(=O)Cc1ccc(N(CCCl)CCCl)cc1`, the LD50 is 46 mg/kg.
As for `ClC1=C(Cl)C2(Cl)C3CCC4C(CCC3C1(Cl)C2(Cl)Cl)C1(Cl)C(Cl)=C(Cl)C4(Cl)C1(Cl)Cl` (stereo unspecified), the median lethal dose (LD50) was 25000 mg/kg.
Take `COP(=S)(OC)Oc1cnc2ccccc2n1`: the LD50 was 900 mg/kg.
As for `C=Cc1ccc(C)nc1`, the LD50 was 1170 mg/kg.
Take `O=S(=O)(c1ccc(Cl)cc1)c1cc(Cl)c(Cl)cc1Cl`: the LD50 is 566 mg/kg.
With `CCCCC(CC)CN` (stereo unspecified), the LD50 was 450 mg/kg.
For `CCCCCOC(CBr)c1ccc(C2CCCC2)cc1` (stereo unspecified), the LD50 is 250 mg/kg.
As to `CCOP(=S)(OCC)SCSCSP(=S)(OCC)OCC`, the LD50 was 8.5 mg/kg.
`CC(C)OP(O)(=S)OC(C)C`: the LD50 was 20200 mg/kg.
Turning to `CCCC(=O)OC(=O)CCC`, the LD50 is 8790 mg/kg.
`CCCCCCCl`: the LD50 is 7000 mg/kg.
For the molecule `CC(O)CF` (stereo unspecified), the LD50 was 3260 mg/kg.
Take `C#CCOC(C)=O`: the LD50 is 250 mg/kg.
`COc1c(F)c(F)c2[nH]c(C(F)(F)F)nc2c1F`: the LD50 was 2.89 mg/kg.
Turning to `O=CCCCC(O)C=O` (stereo unspecified), the LD50 was 17000 mg/kg.
Consider `O=C1OC(=O)c2ccc3c4c(ccc1c24)C(=O)OC3=O`, for which the LD50 was 7400 mg/kg.
As to `O=C(CS(=O)Cc1ccco1)NC/C=C\COc1cc(CN2CCCCC2)ccn1` (stereo unspecified), the LD50 is 1250 mg/kg.
As for `O=C1OCC(CCl)O1` (stereo unspecified), the LD50 is 80 mg/kg.
Regarding `CC(CC(C#N)(c1ccccc1)C(C)C)N(C)C` (stereo unspecified), the LD50 is 250 mg/kg.
Regarding `CC(=O)N(CCN(C(C)=O)C(C)=O)C(C)=O`, the LD50 is 7940 mg/kg.
On to `Clc1cccc2ccccc12`, for which the LD50 is 2200 mg/kg and 1540 mg/kg.
As for `CC1(C)COS(=O)(=O)OC1`, the LD50 is 10 mg/kg.
In the case of `CC(=O)OCCN(CCOC(C)=O)c1ccccc1`, the LD50 is 2150 mg/kg.
`CC(=O)NC(N)=S`: the LD50 is 50 mg/kg.
As to `Cc1ccccc1C#N`, the LD50 was 3200 mg/kg.
Regarding `O=C(NNCS(=O)(=O)O)c1ccncc1`, the LD50 was 14400 mg/kg.
On to `Cc1c(Cl)cccc1Nc1ccccc1C(=O)O`, for which the LD50 was 225 mg/kg.
With `C=C[C@@]1(C)CC(=O)[C@]2(O)[C@@]3(C)[C@@H](O)CCC(C)(C)[C@@H]3[C@H](O)[C@H](OC(C)=O)[C@@]2(C)O1`, the LD50 was 2550 mg/kg.
Consider `CCCCNC1CCCCC1`, for which the LD50 was 330 mg/kg.
Turning to `C[N+](C)(C)CCOC(N)=O`, the LD50 is 40 mg/kg.
Consider `C[N+]1(C)CCCC(OC(=O)C(O)(c2ccccc2)c2ccccc2)C1` (stereo unspecified), for which the LD50 is 742 mg/kg.
In the case of `Nc1cc2c(S(=O)(=O)O)cccc2c(S(=O)(=O)O)c1N`, the LD50 is 29000 mg/kg.
On to `CN(CCC#N)CCC#N`, for which the LD50 was 890 mg/kg.
`COP(=S)(OC)SCCSC(C)C`: the LD50 is 150 mg/kg.
As to `Cc1c(-c2ccccc2)oc2c(C(=O)O)cccc2c1=O`, the LD50 is 1660 mg/kg.
Turning to `CNC(=O)ON=C1SCCSC1(C)C`, the 50% lethal dose (LD50) is 0.27 mg/kg.
As to `C[N+]1(CCC(C(N)=O)(c2ccccc2)c2ccccc2)CCCCCC1`, the LD50 was 2800 mg/kg.
`O=C1C(=NNc2cc([N+](=O)[O-])ccc2O)C(S(=O)(=O)O)=Cc2cc(S(=O)(=O)O)cc(Nc3nc(Cl)nc(Cl)n3)c21`: the LD50 was 9120 mg/kg.
With `CC(C/N=C/c1ccccc1O)/N=C/c1ccccc1O` (stereo unspecified), the LD50 was 4560 mg/kg.
Turning to `CCCN1CCCC1=Nc1ccc(Cl)c(Cl)c1`, the LD50 was 2120 mg/kg.
`Nc1ccc(O)c(Cc2cc(N)ccc2O)c1`: the LD50 is 25 mg/kg.
With `CCc1ccc(CCO)nc1`, the LD50 is 4290 mg/kg.
For the molecule `CN(c1nc2ccccc2s1)C1CCN(CCCCOc2ccc(F)cc2)CC1`, the LD50 was 154 mg/kg.
Regarding `O=C(O)C=Cc1ccc([N+](=O)[O-])o1`, the LD50 was 1220 mg/kg.
As to `CCCCNC(=O)OCC(C)(CCC)COC(N)=O` (stereo unspecified), the LD50 is 1040 mg/kg.
Consider `Cc1ccc(S(=O)(=O)Oc2cc(S(=O)(=O)O)cc3cc(S(=O)(=O)O)cc(N)c23)cc1`, for which the LD50 was 11500 mg/kg.
Consider `CCCCCCOCC(O)CO` (stereo unspecified), for which the LD50 is 2500 mg/kg.
Regarding `C=C(C)CNc1ccc(C(C)C(=O)O)cc1` (stereo unspecified), the LD50 was 550 mg/kg.
Take `NS(=O)(=O)c1cc2c(cc1Cl)N=CNS2(=O)=O`: the LD50 is 10000 mg/kg.
For `O=[N+]([O-])c1ccc(OP(=O)(OCCCl)OCCCl)cc1`, the LD50 is 37 mg/kg.
In the case of `CC=CC=CC(=O)NO`, the median lethal dose (LD50) was 2460 mg/kg.
Take `CCOS(=O)(=O)OCC`: the LD50 was 880 mg/kg.
Consider `CCCCB(CCCC)CCCC`, for which the LD50 is 1120 mg/kg.
For `Cc1ccc2c(c1)C1CN(CCCC(=O)c3ccc(F)cc3)CCC1N2` (stereo unspecified), the LD50 is 812 mg/kg.
With `O=NN1CC=CCO1`, the LD50 is 900 mg/kg.
With `CCC(CC)COCCC(=O)O`, the LD50 was 3730 mg/kg.
As for `CCN(CC)CCO`, the LD50 was 1300 mg/kg.
`CCCCC1OC(=O)c2ccccc21` (stereo unspecified): the LD50 is 2450 mg/kg.
Turning to `CCC(CC)C(=O)OCC(Cl)(Cl)Cl`, the LD50 is 900 mg/kg.
`N#CCc1ccccc1`: the LD50 is 270 mg/kg.
With `c1ccc([C@H]2CN3CCSC3=N2)cc1`, the LD50 is 480 mg/kg.
As for `CCOC(=O)CI`, the 50% lethal dose (LD50) is 50 mg/kg.
Consider `CCCC1C2C=CC(C2)C1C=O` (stereo unspecified), for which the LD50 is 4600 mg/kg.
With `CCCCN(CCO)CCCC`, the LD50 was 1070 mg/kg.
Regarding `COP(=O)(OC1CCCCC1)Sc1ccc(Cl)cc1` (stereo unspecified), the LD50 is 160 mg/kg.
`NS(=O)(=O)c1ccc2nc(C(F)(F)F)[nH]c2c1`: the LD50 is 21 mg/kg.
With `C[Si](C)(C)CCC(=O)O`, the median lethal dose (LD50) is 3000 mg/kg.
Consider `Nc1ccc2c3c([nH]c2c1)CCCC3`, for which the LD50 is 290 mg/kg.
Consider `ClCCC(Cl)(Cl)Cl`, for which the LD50 is 490 mg/kg.
As for `COCC(C)N(C(=O)CCl)c1c(C)csc1C` (stereo unspecified), the LD50 is 397 mg/kg.
With `CCCCCCCCCC(=O)OCCN1CCN(CCCN2c3ccccc3Sc3ccc(C(F)(F)F)cc32)CC1`, the LD50 was 19 mg/kg.
Take `CC(Br)CBr` (stereo unspecified): the LD50 is 741 mg/kg.
On to `c1ccc2c(c1)CCN1CCN=C1C2`, for which the LD50 is 60 mg/kg.
Consider `c1ccc(Nc2cccc3ccccc23)cc1`, for which the 50% lethal dose (LD50) was 1620 mg/kg.
In the case of `CCCCN(COC(C)=O)N=O`, the LD50 is 1500 mg/kg.
Turning to `CCOCCOc1ccc(Cl)cc1Cl`, the LD50 is 1410 mg/kg.
Turning to `COc1cc(C(=O)N2CCCCCCC2)cc(OC)c1OC`, the LD50 was 130 mg/kg.
For the molecule `COc1cc(C(=O)OCCCCN2CCN(c3ccccc3)CC2)cc(OC)c1OC`, the LD50 was 2500 mg/kg.
For the molecule `C[C@@]12CCCCC[C@@H](Cc3ccc(O)cc31)[C@@H]2N`, the LD50 was 243 mg/kg.
In the case of `CP(=O)(Oc1ccc([N+](=O)[O-])cc1)c1ccccc1` (stereo unspecified), the LD50 was 12.5 mg/kg.
Regarding `COCCOC(=O)c1ccccc1C(=O)OCCOC`, the LD50 is 4400 mg/kg.
For the molecule `CCC(C)(C)c1ccc(OCCCCN)c(C(C)(C)CC)c1`, the LD50 was 800 mg/kg.
As to `Cc1ccc2ccccc2c1`, the LD50 was 1630 mg/kg.
In the case of `c1ccc(C(OCCN2CCOCC2)c2ccccc2)cc1`, the LD50 is 916 mg/kg.
`CC(C)=CCC(CCN(C)C)(C(N)=O)c1cccc2ccccc12` (stereo unspecified): the LD50 is 143 mg/kg.
In the case of `CCC1(c2ccccc2)C(=O)N=C(O)NC1=O` (stereo unspecified), the LD50 was 150 mg/kg.
`COP(=O)(OC)ON1C(=O)c2cccc3cccc(c23)C1=O`: the LD50 was 70 mg/kg.
With `O=C1c2ccccc2C(=O)N1CCc1ccccn1`, the LD50 is 860 mg/kg.
Turning to `C=C(C)C(=O)OCC1CCC2OC2C1` (stereo unspecified), the LD50 is 2500 mg/kg.
For `Nc1ccc(I)cc1`, the LD50 is 523 mg/kg.
As for `O=[N+]([O-])c1cc(Cl)c2nc(C(F)(F)F)[nH]c2c1`, the LD50 was 9.87 mg/kg.
Regarding `CCC(CC)COCCC#N`, the LD50 is 2460 mg/kg.
For `C=CCOc1ccccc1C(=O)NCCO`, the LD50 is 1150 mg/kg.
As to `CCCCCCCCSCCO`, the LD50 was 8530 mg/kg.
Regarding `Cc1ccc(N)cc1O`, the LD50 was 3600 mg/kg.
For `CNC(=O)ON=C1SC(C)C(=O)NC1(C)C` (stereo unspecified), the LD50 is 0.884 mg/kg.
Regarding `Cn1c(=O)on(-c2ccc(Cl)c(Cl)c2)c1=O`, the LD50 is 777 mg/kg.
In the case of `COc1ccc2c(=O)oc3c(OC)cc(CCN(C)C)c4c(=O)oc1c2c34`, the LD50 was 518 mg/kg.
For `O=C(O)CCCC(=O)O`, the LD50 was 6000 mg/kg.
On to `Cc1ccc(C)c(CCNC(N)=O)c1`, for which the LD50 is 2300 mg/kg.
For the molecule `CNC(=O)Oc1cc(C)c(C)cc1Cl`, the LD50 was 30 mg/kg.
In the case of `CCOC(=O)C1OC1(C)c1ccccc1` (stereo unspecified), the LD50 was 5470 mg/kg.
Regarding `CC=CC(=O)OC(C=CC)OC(=O)C=CC` (stereo unspecified), the LD50 is 2590 mg/kg.
On to `Cc1ccccc1OCC(COC(O)C(Cl)(Cl)Cl)OC(O)C(Cl)(Cl)Cl` (stereo unspecified), for which the LD50 was 880 mg/kg.
In the case of `CC(C)=CC1C(C(=O)OCc2cccc(Oc3ccccc3)c2)C1(C)C` (stereo unspecified), the LD50 is 500 mg/kg.
As for `N#CCCNC(=O)CCl`, the LD50 was 410 mg/kg.
As to `Cl[C@H]1[C@H](Cl)[C@@H](Cl)[C@H](Cl)[C@@H](Cl)[C@H]1Cl` (racemic), the LD50 was 1000 mg/kg.
As to `OC1(c2ccc(F)cc2)c2ccccc2C2=NCCN21` (stereo unspecified), the LD50 was 200 mg/kg.
`C=COC(=O)C=CC`: the LD50 was 6500 mg/kg.
With `FC(F)OC(F)(F)C(F)Cl` (stereo unspecified), the LD50 is 5450 mg/kg.
`COP(=S)(OC)SCSc1ccccc1`: the 50% lethal dose (LD50) is 16 mg/kg.
As to `CC(CCO)CCO`, the LD50 is 7780 mg/kg.
Regarding `C#CCON=CC1=CCCNC1`, the LD50 is 80 mg/kg.
Regarding `FC(F)(F)c1ccc2nc(C(F)(F)F)[nH]c2c1`, the LD50 was 9.02 mg/kg.
As for `CCC(C)OC(CBr)c1ccccc1` (stereo unspecified), the LD50 is 250 mg/kg.
